Source: US5247084A, “Derivatives of p-guanidinobenzoic acid” (priority 1985, dated 1993)
pIC50: −log10 of the molar value. Like-named read-outs stand apart in the source and are kept apart here.

How the values were obtained:
[1] = acute toxicity test in mice by intravenous administration; details: mouse, in vivo
[2] = biological target: T1, elastase from human neutrophil (Homo sapiens, UniProt P08246); experiment: Inhibitory effect on elastase (spectrophotometric method, substrate Suc-Ala-Pro-Ala-pNA); format: biochemical; details: for pIC50: pH 8.0, 37° C., 30 minutes
T1 construct: using elastase from human neutrophil; from tissue; host or cells: human neutrophil
T1 sequence (P08246 30-247 limits assumed): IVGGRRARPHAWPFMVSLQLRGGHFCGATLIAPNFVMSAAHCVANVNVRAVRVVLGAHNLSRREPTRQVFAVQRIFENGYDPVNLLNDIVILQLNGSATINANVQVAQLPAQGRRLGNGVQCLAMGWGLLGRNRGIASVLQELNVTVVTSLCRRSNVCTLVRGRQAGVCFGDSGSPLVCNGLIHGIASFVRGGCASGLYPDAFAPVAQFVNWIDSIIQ
Procedure: The test was carried out by the slight modification of the method of Bieth et al [see Biochem. Med., 75, 350 (1974)] using elastase from human neutrophil.
The reaction mixture consisted of 1 mM Suc-Ala-Pro-Ala-pNA (dissolving in N-methylpyrrolidone to the concentration of 100 mM, and then adding 1/100 amount of the solution to the reaction mixture.), 0.1 M buffer solution of tris-hydrochloric acid (pH 8.0), 0.2 M sodium chloride aqueous solution, the sample solution of various concentrations and enzyme solution in a final volume of 1.0 ml was incubated at 37° C. for 30 minutes.
The reaction was stopped by the addition of 100 μl of 50% acetic acid into the reaction mixture, and then p-nitro anilide released was measured on absorbance of 405 nm.
Inhibition percentage of the test compounds was caliculated by the following equation: [formula]

[3] = Y represents an oxygen atom, read-out: Inhibitory Effect on Elastase, IC50
[4] = Y represents a sulfur atom, read-out: Elastase Inhibitory Effect, IC50
[5] = at 50 μg/ml, Y represents a sulfur atom, read-out: Elastase Inhibitory Effect, Inhibition %

Structure (SMILES): CS(=O)(=O)O.N=C(N)Nc1ccc(C(=O)Oc2cc(O)cc(Cl)c2)cc1 [Example 112, p-guanidinobenzoic acid 3-chloro-5-hydroxyphenyl ester methanesulfonate]
- LD50 [1]: 50 to 150 mg/kg
- pIC50 [2, 3]: 5.08

Structure (SMILES): N=C(N)Nc1ccc(C(=O)Sc2ccccc2)cc1 [Example 124]
- LD50 [1]: 50 to 150 mg/kg
- pIC50 [2, 4]: 5.68
- inhibition at 50 µg/mL [2, 5]: 94%

Structure (SMILES): N=C(N)Nc1ccc(C(=O)Sc2cc(Cl)ccc2Cl)cc1 [Example 135, p-guanidinobenzoic acid 2,5-dichlorothiophenyl ester methanesulfonate]
- LD50 [1]: 50 to 150 mg/kg
- pIC50 [2, 4]: 7.00
- inhibition at 50 µg/mL [2, 5]: 92.1%

Structure (SMILES): N=C(N)Nc1ccc(C(=O)Oc2cc(Cl)ccc2Cl)cc1 [Example 37]
- LD50 [1]: 50 to 150 mg/kg
- pIC50 [2, 3]: 5.96
- inhibition at 100 µM ([2]; at 100 μM, Y represents an oxygen atom): 85.8%

Structure (SMILES): CCN(CC)S(=O)(=O)c1ccc(OC(=O)c2ccc(NC(=N)N)cc2)cc1Cl [Example 94]
- LD50 [1]: 50 to 150 mg/kg
- pIC50 [2, 3]: 4.66

Structure (SMILES): N=C(N)Nc1ccc(C(=O)Oc2ccccc2)cc1 [hydrogen, reference compound]
- LD50 [1]: 50 to 150 mg/kg
- inhibition at 50 µg/mL ([2]; at 50 μg/ml (footnote 2), Y represents an oxygen atom, read-out: Inhibitory Effect on Elastase, Inhibition %): 54.6%
